Source: PMC8226474, “Design, Syntheses, and Bioevaluations of Some Novel N^2-Acryloylbenzohydrazides as Chemostimulants and Cytotoxic Agents” (Medicines, 2021)

Legend:
[1] = Cytotoxicity (CC50), average over non-malignant cells; type: cell-based; conditions: human, Hs27 and MCF10A cells (non-malignant), average of both
Description: (§1) In brief, the compounds were incubated for 24 h with the neoplasms, using DMEM and RPMI media. Three independent experiments were carried out.

[2] = test system: CEM cells; test: Cytotoxicity (CC50), CEM cells; type: cell-based, human; conditions: for CC50: Homo sapiens, CCRF-CEM, 24 h incubation; for SI CEM: average CC50 of non-malignant cells / CC50 CEM
Description: as §1

[3] = test system: JURKAT cells; test: Cytotoxicity (CC50), Jurkat cells; type: cell-based, human; conditions: for CC50: Homo sapiens, Jurkat, 24 h incubation; for SI JURKAT: average CC50 of non-malignant cells / CC50 JURKAT
Description: as §1

[4] = test system: MCF-7 cells; test: Cytotoxicity assay, MCF-7 breast cancer cells; type: cell-based, human; conditions: for inhibition at 10 µM / inhibition at 100 µM: read-out: percentage inhibition of MCF-7 cells
Description: (§2) Evaluation of the cytotoxic properties of the compounds presented in Table 1, Table 2, Table 3 and Table 4 was undertaken using the procedure outlined in [7]. In brief, the HCT 116 cells were obtained from the ATCC and cultured in McCoy’s 5A medium. The CRL 1790 cells were obtained from the ATCC and cultured in Minimum Essential Medium. The MCF-7 and MDA-MBA-231 cells were obtained from the Saskatchewan Cancer Agency and cultured in DMEM. In each assay the culture medium was supplemented with 10% fetal bovine serum and 1% penicillin–streptomycin antibiotics. The time of the bioassays was 48 h, unless indicated otherwise. All determinations were carried out in triplicate on three different occasions.

[5] = test system: HL-60 cells; test: Cytotoxicity (CC50), HL-60 cells; type: cell-based, human; conditions: for CC50: Homo sapiens, HL-60, 24 h incubation; for SI HL-60: average CC50 of non-malignant cells / CC50 HL-60
Description: as §1

[6] = Cytotoxicity (CC50), non-malignant Hs27 foreskin cells; type: cell-based; conditions: human, 24 h incubation
Description: as §1

[7] = test system: RAJI cells; test: Cytotoxicity (CC50), Raji cells; type: cell-based, human; conditions: for CC50: Homo sapiens, Raji, 24 h incubation; for SI RAJI: average CC50 of non-malignant cells / CC50 RAJI
Description: as §1

[8] = test system: NALM-60 cells; test: Cytotoxicity (CC50), NALM-60 cells; type: cell-based, human; conditions: for CC50: Homo sapiens, 24 h incubation; for SI NALM-60: average CC50 of non-malignant cells / CC50 NALM-60
Description: as §1

[9] = test system: Ramos cells; test: Cytotoxicity (CC50), Ramos cells; type: cell-based, human; conditions: for CC50: Homo sapiens, Ramos, 24 h incubation; for SI Ramos: average CC50 of non-malignant cells / CC50 Ramos
Description: as §1

[10] = test system: CRL 1790 cells; test: Cytotoxicity assay, non-malignant CRL 1790 colon cells; type: cell-based; conditions: Homo sapiens, 48 h, Table 2, read-out: Non-Malignant CRL 1790 Cells IC50
Description: as §2

[11] = test system: HCT 116 cells; test: Cytotoxicity assay, HCT 116 colon cancer cells; type: cell-based, human; conditions: for inhibition at 10 µM / inhibition at 100 µM: read-out: percentage inhibition of HCT 116 cells
Description: as §2

[12] = test system: MDA-MB-231 cells; test: Cytotoxicity assay, MDA-MB-231 breast cancer cells; type: cell-based, human; conditions: Homo sapiens, MDA-MB-231, 48 h, read-out: percentage inhibition of MDA-MB-231 cells
Description: as §2

[13] = test system: Ramos, NALM-60, CEM, HL-60, JURKAT, RAJI cells; test: Cytotoxicity (CC50), average over six leukemia/lymphoma cell lines; type: cell-based, human; conditions: for CC50: Homo sapiens, average over six neoplastic cell lines
Description: as §1

[14] = Cytotoxicity (CC50), non-malignant MCF-10A breast cells; type: cell-based; conditions: human, MCF-10A cells (non-malignant breast cells); 24 h incubation; read-out: Non-Malignant Cells CC50, MCF10A
Description: as §1

[15] = test system: Ramos cells; test: Mitochondrial membrane potential of Ramos cells (JC-1 dye, flow cytometry); type: cell-based, human; conditions: 5 h, Figure 3
Description: The effect of 1l on the mitochondrial membrane potential of Ramos cells was determined using the procedure laid out in [9]. In brief, the cells were treated with 1l for 5 h, stained with the JC-1 dye, and then the results were analyzed by flow cytometry.
The MMP of Ramos cells was determined using the JC-1 dye. In this assay, JC-1 enters the energized mitochondria in healthy cells and forms aggregates to produce red fluorescence at 590 nm. However, cells undergoing apoptotic cell death have a low mitochondrial membrane potential.

| Structure (SMILES) | CC50 at 24 h [1] | CC50 [2] | SI CEM [2] | CC50 [3] | SI JURKAT [3] | inhibition at 10 µM ([4]; Homo sapiens, MCF7, 48 h) | inhibition at 100 µM ([4]; Homo sapiens, MCF7, 48 h) | CC50 [5] | SI HL-60 [5] | CC50 at 24 h [6] | CC50 [7] | SI RAJI [7] | CC50 [8] | SI NALM-60 [8] | CC50 [9] | SI Ramos [9] | IC50 [10] | inhibition at 10 µM ([11]; Homo sapiens, HCT-116, 48 h) | inhibition at 100 µM ([11]; Homo sapiens, HCT-116, 48 h) | inhibition at 10 µM [12] | further results |
| --- | --- | --- | --- | --- | --- | --- | --- | --- | --- | --- | --- | --- | --- | --- | --- | --- | --- | --- | --- | --- | --- |
| C=CC(=O)NNC(=O)c1ccccc1 [1a, N^2-Acryloylbenzohydrazide] | 12.9 µM | 910 ± 480 nM | 14.2 | 3520 ± 360 nM | 3.65 | 5.47 ± 3.52% | 51.1 ± 2.87% | 3320 ± 260 nM | 3.89 | 12.1 ± 0.91 µM | 5.18 ± 0.35 µM | 2.49 | 2740 ± 590 nM | 4.71 | 190 ± 10 nM | 67.9 | > 100 µM | 10.6 ± 1.7% | 94.1 ± 1.44% | -12.2 ± 1.5% | IC50 ([11]; Homo sapiens, HCT-116, Table 2, 48 h, read-out: Neoplastic Cells IC50, HCT 116): 36.9 ± 2.84 µM; SI (selectivity index) ([11]; IC50 CRL 1790 / IC50 HCT 116, Table 2): >2.70; inhibition at 100 µM [12]: 52.1 ± 2.04%; Avg SI, neoplastic cells [13]: 16.1; CC50 [13]: 2640 nM; CC50 at 24 h [14]: 13.7 ± 1.1 µM; melting point: 177 to 179 °C |
| C=CC(=O)NNC(=O)c1ccc(OC)cc1 [1l, N^2-Acryloyl-4-methoxylbenzohydrazide] | 17.9 µM | 1420 ± 250 nM | 12.6 | 2170 ± 450 nM | 8.25 | 60.6 ± 3.29% | 99.4 ± 2.34% | 1860 ± 660 nM | 9.62 | 17.7 ± 0.62 µM | 2.93 ± 0.43 µM | 6.11 | 3250 ± 990 nM | 5.51 | 190 ± 10 nM | 94.2 | > 100 µM | 8.62 ± 2.79% | 85.1 ± 3.28% | -4.95 ± 3.12% | IC50 ([4]; Homo sapiens, MCF7, Table 2, 48 h, read-out: Neoplastic Cells IC50, MCF-7): 3.18 ± 0.53 µM; SI (selectivity index) ([4]; IC50 CRL 1790 / IC50 MCF-7, Table 2): >31.5; effect on mitochondrial membrane potential of Ramos cells ([15]; CC50 concentration of 1l, vs control): significantly depolarized; effect on mitochondrial membrane potential of Ramos cells ([15]; doubled (2 x CC50) concentration of 1l): approximately twofold increase in the mitochondrial depolarization; inhibition at 100 µM [12]: 47.7 ± 3.19%; Avg SI, neoplastic cells [13]: 22.7; CC50 [13]: 1970 nM; CC50 at 24 h [14]: 18.1 ± 0.84 µM |
